# Reference: patent publication US20250034105A1, “IS[…] N-METHYL-1,3-BENZODIOXOLYLBUTANAMINE (MBDB) AND STEREOISOMERS THEREOF” (Terran Biosciences Inc., priority 2021, published 2025)
# Columns and labels:
# [1] = cited from earlier work
# [2] = test system: Male Sprague-Dawley rats; assay: Rat elevated zero maze model of anxiety; assay type: in vivo; conditions: for frequency of stretched attend postures (SAPs): 30 min before 5-min test; for dose at which switch to an anxiolytic effect was shown (magnitude of reduction in SAPs): ip, rat zero maze
# Excerpt: The rat zero-maze model is a refined alternative to the plus-maze, the most widely used animal model of anxiety, and consists of an elevated annular platform, divided equally into four quadrants. Two opposite quadrants are enclosed by Perspex walls on both the inner and the outer edges of the platform, while the remaining two opposite quadrants are open being enclosed only by a Perspex “lip”. Animals will show a preference for the closed areas, and avoidance of the open sections is assumed to stem from a rodent's natural aversion to open, exposed spaces. A reduction in the amount of activity on the open areas is considered to reflect an increase in anxiety. The ethologically-based behavior stretched attend postures (SAP) from closed to open quadrants is assessed as an index of anxiety. Increase in SAPs is indicative of an anxiogenic effect and decreases in SAPs is indicative of an anxiolytic effect. Shepherd, J K; Grewel, S S; Fletcher, A; Bill, D J; Dourish, C T (1994) Behavioural and pharmacological validation of the elevated “zero-maze” as an animal model of anxiety. Psychopharmacol., 116:56-64.
# Male Sprague-Dawley 200-250 g (Envigo UK) rats were used. Animals were group-housed (5 per cage; cage size: 40×40×20 cm) in a temperature-controlled environment (22±2° C.), under a 12 h light-dark cycle (lights on: 08:00 hours) for one week prior to testing. Food and water were freely available. Number of animals per group=5. Animals were moved into the experimental room 16-24 hours before testing.
# The elevated 0-maze comprises a black Perspex annular platform (105 cm diameter, 10 cm width) elevated to 65 cm above ground level, divided equally into four quadrants. Two opposite quadrants are enclosed by clear red Perspex walls (27 cm high) on both the inner and outer edges of the platform, while the remaining two opposite quadrants are surrounded only by a Perspex “lip” (1 cm high) which serves as a tactile guide to animals on these open areas.
# Subjects were weighed and tail marked before being injected. After a specified pre-treatment time, subjects were placed in a closed quadrant and a 5-min test period were recorded on videotape for subsequent analysis. The maze was cleaned with 5% methanol/water solution and dried thoroughly between test sessions. Behavioural measures comprise percentage time spent on the open areas (% TO) and frequency of stretched attend postures (SAP) from closed to open quadrants. Since the control groups were all treated identically with the same vehicle these were combined to increase power. The Chlordiazepoxide groups were also treated identically with the same dose so these were also combined to increase power. Animals are scored as being in the open area when all four paws were in an open quadrant and in the closed area only when all four paws have passed over the open-closed divide. All testing were carried out between 9.00 and 16.00 hours.
# Chlordiazepoxide was formulated in Vehicle 1 (saline) to a concentration of 1.2 mg/mL to provide a dose of 6 mg/kg when administered ip in 5 mL/kg dosing volumes.
# 35 male Sprague-Dawley rats in treatment groups of 5, were intraperitoneally dosed with either Vehicle 1 (saline) or Rac-MBDB at 1 of 5 dose levels (2.5, 5, 10, 15 & 30 mg/kg) or chlordiazepoxide (6 mg/kg) in 5 mL/kg injection volumes. Thirty min later at T-0, rats were individually placed in a closed arm of the zero-maze and behavior assessed by a “blind” observer using remote video monitoring over the subsequent 5 min. The animals were then removed and the maze carefully wiped with 5% methanol/water solution before the next test was begun.
# 35 male Sprague-Dawley rats in treatment groups of 5, were intraperitoneally dosed with either Vehicle 1 (saline) or R-MBDB at 1 of 5 dose levels (2.5, 5, 10, 15 & 30 mg/kg) or chlordiazepoxide (6 mg/kg) in 5 mL/kg injection volumes. […]
# [3] = test system: participants diagnosed with at least moderate post-traumatic stress disorder (PTSD); assay: Double-blind, randomized, placebo-controlled clinical trial of MBDB-assisted psychotherapy in PTSD; assay type: in vivo, human; conditions: results that "may" be observed; for change in CAPS-5 assessment compared to the placebo group: at Study Conclusion
# Method: A multicenter, randomized, double-blind, placebo-controlled trial is conducted to assess the efficacy and safety of MBDB-assisted psychotherapy versus psychotherapy with placebo control in participants diagnosed with at least moderate post-traumatic stress disorder (PTSD). Rationale
# This multicenter, randomized, double-blind, placebo-controlled trial is conducted at various sites in the United States with IRB approval from each study site. A flexible dose of MBDB hydrochloride salt or placebo, followed by a supplemental half-dose unless contraindicated by patient's previous response or medical history, is also administered during the Treatment Period with psychotherapy in at least 3 blinded monthly Experimental Sessions. The Supplemental Dose extends the duration of drug effects on the participants during an Experimental Session. MBDB test groups are further subdivided into specific groups receiving only racemic MBDB hydrochloride salt, S-MBDB hydrochloride salt, or R-MBDB hydrochloride salt. An optional Risk Evaluation and Mitigation Strategy (REMS) Protocol may be implemented for the racemic MBDB, S-MBDB, R-MBDB, and placebo-groups. The Treatment Period lasts for approximately 12 weeks. During the Treatment Period, each Experimental Session is followed by three Intervening Sessions of non-drug psychotherapy. Each Experimental Session involves an overnight stay. The Primary Outcome measure, the change in Clinician Administered PTSD Scale for DSM-5 (CAPS-5), is determined by a blinded Independent Rater (IR) pool multiple times throughout the study. The study consists of separate periods for each participant. Initially, prospective participants undergo a Screening Period involving an initial eligibility assessment, a medical history intake, informed consent, and enrollment of eligible participants. Next, a Preparation Period is undertaken for enrolled participants involving medication tapering and clinical baseline assessments to confirm each participant meets enrollment criteria. As part of the Preparation Period, a detailed assessment of co-morbidities to PTSD is recorded. Participants may remain on prescribed courses of selective serotonin reuptake inhibitor (SSRI) or serotonin and norepinephrine reuptake inhibitor (SNRI) treatment. Dosages and/or frequency of administration of a prescribed SSRI or SNRI may be adjusted to fit within study parameters. Participants may be required to taper a prescribed course of medication in order to maintain eligibility within the study. The Treatment Period consists of three monthly Experimental Sessions and associated Intervening Sessions of integrative behavioral psychotherapy. The Treatment Period lasts approximately 12 weeks. Following the Treatment Period is a Follow-up Period and Study Conclusion. During the Follow-up Period and Study Conclusion, participants complete 4 weeks with no study visits, followed by a Study Conclusion visit.
# This study compares the effects of three blinded Experimental Sessions of psychotherapy in combination with flexible doses of MBDB or placebo administered as described below. Non-drug preparatory and intervening psychotherapy sessions are also included. Patient's weight is determined for dosage calculation. Initial dose is 180 mg unless this will result in a dosage of less than 1.5 mg/kg of patient weight. Initial dose thereby adjusted upward in 50 mg increments to deliver the lowest dose possible of at least 1.5 mg/kg of patient weight. Initial dose for Experimental Session 2 and 3 is cumulative dose calculated by adding the initial dose plus REMS protocol dose used the previous Experimental Session for each patient.
# The primary objective of this study is to evaluate the efficacy and safety of MBDB treatment combined with psychotherapy to treat moderate to severe PTSD compared to identical psychotherapy combined with placebo treatment. […]
Structure (SMILES),"Coming Down, time after dose ([1]; adapted from PiHKAL 1991)","Oral MBDB dose, drug activity level Very Strong ([1]; oral)",frequency of stretched attend postures (SAPs) ([2]; 10 mg/kg ip),frequency of stretched attend postures (SAPs) ([2]; 15 mg/kg ip),"frequency of stretched attend postures (SAPs) ([2]; 30 mg/kg ip, vs vehicle)","frequency of stretched attend postures (SAPs) ([2]; 30 mg/kg ip, vs vehicle, listed as R MBDB)",dose at which switch to an anxiolytic effect was shown (magnitude of reduction in SAPs) [2],change in CAPS-5 assessment compared to the placebo group [3],clinician-rated functional impairment score as measured by SDS compared to placebo-treated controls [3],daytime sleepiness as measured by ESS [3],depression as measured by HAM-D compared to placebo-treated controls [3],"frequency of stretched attend postures (SAPs) ([2]; 5 mg/kg ip, vs vehicle)","frequency of stretched attend postures (SAPs) ([2]; 30 mg/kg ip, vs vehicle, listed as S MBDB)"
"CCC(Cc1ccc2c(c1)OCO2)NC (stereo not drawn) [MBDB, 1-(benzo[d][1,3]dioxol-5-yl)-N-methylbutan-2-amine]",~90 min,≥350 mg,,,,,,,,,,,
CC[C@H](Cc1ccc2c(c1)OCO2)NC [R-MBDB],,,produced a consistent level of SAPs similar to the 5 mg/kg,showed a reduction in the number of SAPs compared to lower doses,decreased the frequency of SAPs as effectively as the benzodiazepine chlordiazepoxide,significantly reduced the number of SAPs,15 mg/kg,significant mean reduction,significant improvement,significant improvement,significant improvement,,
CC[C@@H](Cc1ccc2c(c1)OCO2)NC [S-MBDB],,,showed a rapid reduction in total SAPs,showed a reduction in the number of SAPs compared to lower doses,decreased the frequency of SAPs as effectively as the benzodiazepine chlordiazepoxide,,10 mg/kg,significant mean reduction,significant improvement,significant improvement,significant improvement,reached significance,significantly reduced the number of SAPs
